Experiment [1] concerns Mouse preadipocyte strain 3T3-L1. Description: Inhibition of differentiation as an indication of acetic acid uptake. In kind it is cell-based. Conditions: control (0.01% dimethylsulfoxide) = 100%; for activity at 0.1 µM: Mus musculus, read-out: Rate of Uptake (%) of [2-14C] acetic acid. The gist of the method: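 Differentiation is indexed by 1 hr [2-14C]acetic acid incorporation, measured by scintillation counting and given as uptake relative to 0.01% DMSO control (100%). Mouse 3T3-L1 preadipocytes, pre-grown 10 days, received 0.1 μM test substance throughout a 4-day insulin/IBMX/dexamethasone induction, followed by 2 days' maintenance culture.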

Experiment [2] has as its system Rat white adipocytes. Description: Stimulation of differentiation of the adipocytes (Oil Red O). The format is cell-based. Conditions: 100 nM test compound, 5 days, Oil Red O ABS550, control = 100%, blank = 0%, Table 7; for activity at 0.1 µM: Rattus norvegicus, Adipocyte, 120 h, read-out: Rate of Differentiation (%). The gist of the method:
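Oil Red O lipid staining, absorbance 550 nm after DMSO extraction, quantified differentiation of rat white adipocytes exposed 5 days to compound (final 100 nM, 0.1% DMSO) in differentiation medium. Percent differentiation normalised between cell-free blank (0%) and DMSO control (100%).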

Read-outs that look alike come from different tables or passages of the source.

As to `O=C(Nc1ccc(-c2ccc([N+](=O)[O-])cc2)cc1)c1cc([N+](=O)[O-])ccc1Cl` [Example 9, N-[4-(4-Nitrophenyl)phenyl)-(2-chloro-5-nitrophenyl)carboxamide], the activity at 0.1 µM is 59.9% in experiment [1] (0.1 μM test substance) and 116% in experiment [2].
Consider `CCCc1ccc(NC(=O)c2cc([N+](=O)[O-])ccc2Cl)cc1` [Example 15, N-(4-Propylphenyl)-(2-chloro-5-nitrophenyl)carboxamide], for which the activity at 0.1 µM in experiment [1] (3T3-L1, 0.1 μM test substance) is 78.4%; in experiment [2] it was 124%.
Take `O=C(Nc1ccc(OC(F)(F)F)cc1)c1cc([N+](=O)[O-])ccc1Cl` [Example 18, N-(4-Trifluoromethyloxyphenyl)-(2-chloro-5-nitrophenyl)carboxamide]: the activity at 0.1 µM in experiment [1] (3T3-L1, 0.1 μM test substance) stood at 53.8%; in experiment [2], 115%.
Take `O=C(Nc1cc([N+](=O)[O-])ccc1Cl)c1cc([N+](=O)[O-])ccc1Cl` [Example 28, N-(2-Chloro-5-nitrophenyl)-(2-chloro-5-nitrophenyl)carboxamide]: the activity at 0.1 µM in experiment [1] (0.1 μM test substance) is 87.8%; in experiment [2], 111%.
Take `Cc1ccc(S(=O)(=O)Nc2ccc(NC(=O)c3cc([N+](=O)[O-])ccc3Cl)cc2)cc1` [Example 32, N-[4-(4-Methylbenzene)sulfonylaminophenyl]-(2-chloro-5-nitrophenyl)carboxamide]: the “Rate of Uptake (%) of [2-14C] acetic acid” value in experiment [1] (0.1 μM test substance) was 60.5%. Besides, the “Rate of Differentiation (%)” value in experiment [2] is recorded as 114.6%.
As for `O=C(Nc1nc2ccc([N+](=O)[O-])cc2s1)c1cc([N+](=O)[O-])ccc1Cl` [Example 34, N-(6-Nitrobenzothiazol-2-yl)-(2-chloro-5-nitrophenyl)carboxamide], the activity at 0.1 µM is 60.8% in experiment [1] (0.1 μM test substance) and 140% in experiment [2].
In the case of `O=C(Nc1nc(-c2cccs2)cs1)c1cc([N+](=O)[O-])ccc1Cl` [Example 36, N-[4-(2-Thienyl)thiazol-2-yl)-(2-chloro-5-nitrophenyl)carboxamide], the activity at 0.1 µM came out at 29.2% in experiment [1] (3T3-L1, 0.1 μM test substance) and 111% in experiment [2].
Taken in the same sequence, the figures for `O=C(Nc1nc(-c2ccc(Cl)c(Cl)c2)cs1)c1cc([N+](=O)[O-])ccc1Cl` [Example 43, N-[4-(3,4-Dichlorophenyl)thiazol-2-yl]-(2-chloro-5-nitrophenyl)carboxamide] were 56.7% and 118%.
The like results for `O=C(Nc1nccc2ccccc12)c1cc([N+](=O)[O-])ccc1Cl` [Example 59, N-(Isoquinolin-1-yl)-(2-chloro-5-nitrophenyl)carboxamide] were, in that order, 36.3% and 121%.
Taken in the same sequence, the figures for `O=C(Nc1nc(Cl)cc(Cl)n1)c1cc([N+](=O)[O-])ccc1Cl` [Example 83, N-(4,6-Dichloropyrimidin-2-yl)-(2-chloro-5-nitrophenyl)carboxamide] were 75.6% and 114%.
In the case of `Cc1noc(NS(=O)(=O)c2ccc(NC(=O)c3cc([N+](=O)[O-])ccc3Cl)cc2)c1C` [Example 104, N-[4-[(3,4-Dimethylisoxazol-6-yl)aminosulfonyl]phenyl]-(2-chloro-5-nitrophenyl)carboxamide], the activity at 0.1 µM in experiment [1] (3T3-L1, 0.1 μM test substance) came to 89.8%; in experiment [2] it was 115%.
The like results for `O=C(Nc1ccc(N2CCCCC2)cc1)c1cc([N+](=O)[O-])ccc1Cl` [Example 114, N-[4-(Piperidin-1-yl)phenyl]-(2-chloro-5-nitrophenyl)carboxamide] were, in that order, 79% and 118%.
As for `Cc1ccc(C(=O)Nc2ccc(NC(=O)c3cc([N+](=O)[O-])ccc3Cl)cc2)cc1` [Example 121, N-[4-(4-Methylbenzoyl)aminophenyl]-(2-chloro-5-nitrophenyl)carboxamide], the activity at 0.1 µM came to 81% in experiment [1] (3T3-L1, 0.1 μM test substance) and 136% in experiment [2].
On to `Cc1ccc2nc(NC(=O)c3cc([N+](=O)[O-])ccc3Cl)sc2c1` [Example 141, N-(6-Methybenzothiazol-2-yl)-(2-chloro-5-nitrophenyl)carboxamide], for which the “Rate of Uptake (%) of [2-14C] acetic acid” value in experiment [1] (0.1 μM test substance) worked out at 78.7%. Besides, the “Rate of Differentiation (%)” value in experiment [2] was 133.2%.
`CCc1ccc(S(=O)(=O)Nc2ccc(NC(=O)c3cc([N+](=O)[O-])ccc3Cl)cc2)cc1` [Example 150, N-[4-(4-Ethylbenzenesulfonylamino)phenyl]-(2-chloro-5-nitrophenyl)carboxamide]: the activity at 0.1 µM in experiment [1] (3T3-L1, 0.1 μM test substance) came out at 82.9%; in experiment [2] it was 137%.
Taken in the same sequence, the figures for `O=C(Nc1ccc(S(=O)(=O)N2CCCCC2)cc1)c1cc([N+](=O)[O-])ccc1Cl` [Example 151, N-[4-(Piperidyisulfonyl)phenyl]-(2-chloro-5-nitrophenyl)carboxamide] were 62.3% and 118%.
Take `O=C(Nc1ccc(S(=O)(=O)N2CCOCC2)cc1)c1cc([N+](=O)[O-])ccc1Cl` [Example 153, N-[4-(Morpholin-4-ylsulfonyl)phenyl]-(2-chloro-5-nitrophenyl)carboxamide]: the activity at 0.1 µM in experiment [1] (3T3-L1, 0.1 μM test substance) came out at 70.2%; in experiment [2], 110%.
For the molecule `O=C(Nc1nc(-c2ccc([N+](=O)[O-])cc2)cs1)c1cc([N+](=O)[O-])ccc1Cl` [Example 246, N-[4-(4-Nitrophenyl)thiazol-2-yl]-(2-chloro-5-nitrophenyl)carboxamide], the activity at 0.1 µM in experiment [2] is 120%.
Regarding “N-[3-(Pyrrolidinylsulfonyl)phenyl]-(2-chloro-5-nitrophenyl)carboxamide [Example 154]”, in experiment [1] (0.1 μM test substance), the “Rate of Uptake (%) of [2-14C] acetic acid” value is on record as 67.4%. For the same molecule, the “Rate of Differentiation (%)” value in experiment [2] was 123.8%.

The values are drawn from patent US20030134859A1 (SANKYO COMPANY, LIMITED, priority 2000, published 2003).
